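A five-concentration, 48-hour dose response in 96-well plates underlies each endpoint, interpolated linearly between surrounding concentrations. GI50 is the concentration that inhibits growth by half.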 The source made the active and inactive calls. Rule as the data show it: active = GI50 up to about 1.1 µM and inactive = higher.
Experiments:
Assay in all cases: NCI-60 cell line screen, 48 h
[1] = test system: UACC-257
[2] = test system: U-251
[3] = test system: OVCAR-4
[4] = test system: Hs-578T
[5] = test system: MDA-MB-231
[6] = test system: COLO 205
[7] = test system: A549
[8] = test system: EKVX
[9] = test system: 786-0
[10] = test system: HCC 2998
[11] = test system: SW-620
[12] = test system: CAKI-1
[13] = test system: T47D
[14] = test system: SK-MEL-28
[15] = test system: RXF 393
[16] = test system: NCI/ADR-RES
[17] = test system: BT-549
[18] = test system: LOX IMVI
[19] = test system: HL-60

Measured: GI50

Cc1ccc(/C=N/Nc2cc(C)c3ccccc3n2)s1
inactive: [1] 7.53 µM | [2] 16.8 µM | [3] 20 µM | [4] 31.5 µM | [6] 4.71 µM | [7] 16.5 µM | [8] 4.84 µM | [9] 18.7 µM | [10] 15.3 µM | [11] 21.7 µM | [12] 11.4 µM | [13] 5.48 µM | [14] 20.3 µM | [15] 23.3 µM | [16] 11.1 µM | [17] 21.3 µM | [18] 10.3 µM | [19] 33.2 µM
active: [5] 0.44 µM

O=C(O)[C@H]1NC[C@@H]2ON=C(Br)[C@@H]21
inactive: [1] > 100 µM | [2] > 100 µM | [3] > 100 µM | [4] > 100 µM | [5] > 100 µM | [6] > 100 µM | [7] > 100 µM | [8] > 100 µM | [9] > 100 µM | [10] > 100 µM | [11] > 100 µM | [12] > 100 µM | [13] > 100 µM | [14] > 100 µM | [15] > 100 µM | [16] > 100 µM | [17] > 100 µM | [18] > 100 µM | [19] > 100 µM

CC(=O)O[C@@H]1[C@@H](C)[C@]2(CC(c3ccoc3)OC2O)C2CCC3O[C@]3(C)[C@]2(C)[C@@H]1OC(C)=O (stereo not given in full)
inactive: [1] 29.4 µM | [2] 83 µM | [3] 12.5 µM | [4] 48.5 µM | [5] > 100 µM | [6] 20.3 µM | [7] 47.3 µM | [8] 56.4 µM | [9] 19.2 µM | [11] 36.4 µM | [12] > 100 µM | [13] 28.5 µM | [14] 25.9 µM | [15] 35.1 µM | [16] 40.2 µM | [17] 25.2 µM | [18] 22.3 µM | [19] 18 µM

Cc1ccc(C(=O)Nc2ccc(S(=O)(=O)O)c3cc(S(=O)(=O)O)cc(S(=O)(=O)O)c23)cc1N
inactive: [1] > 100 µM | [3] > 100 µM | [4] > 100 µM | [5] > 100 µM | [6] > 100 µM | [8] > 100 µM | [9] > 100 µM | [10] > 100 µM | [11] > 100 µM | [12] > 100 µM | [13] > 100 µM | [14] > 100 µM | [15] > 100 µM | [16] > 100 µM | [17] > 100 µM | [19] > 100 µM

CCCC(=O)N(C(=O)CCC)C1=C(Cl)C(=O)c2ccccc2C1=O
inactive: [1] 3.42 µM | [2] 4.08 µM | [3] 5.52 µM | [4] 8.04 µM | [5] 18.2 µM | [6] 2.91 µM | [7] 6.73 µM | [8] 5.36 µM | [9] 9.98 µM | [10] 4.04 µM | [11] 2.87 µM | [12] 2.24 µM | [13] 2.33 µM | [14] 3.72 µM | [15] 2.17 µM | [16] 3.86 µM | [17] 3.41 µM | [18] 3.66 µM
active: [19] 0.574 µM

O=C1Nc2ccccc2/C1=N/Nc1ccc([N+](=O)[O-])cc1[N+](=O)[O-]
inactive: [1] 8.49 µM | [2] 8.87 µM | [3] 10 µM | [4] 6.37 µM | [5] 13.2 µM | [6] 14.5 µM | [7] 12.5 µM | [8] 1.5 µM | [9] 9.25 µM | [10] 11.6 µM | [11] > 100 µM | [12] 20.4 µM | [13] 15.7 µM | [14] 63 µM | [15] 13.6 µM | [16] 8.09 µM | [17] 12.1 µM | [18] 6.78 µM | [19] > 100 µM

CC(=O)c1sc2c(c1OC(=O)c1ccco1)c(=O)n(-c1ccccc1)c(=S)n2-c1ccccc1
inactive: [1] 27.5 µM | [2] 23.3 µM | [3] 28.9 µM | [4] 2.28 µM | [5] 21.5 µM | [6] 17.4 µM | [7] 38.2 µM | [8] 26.4 µM | [9] 26.7 µM | [11] 26.6 µM | [12] 32.5 µM | [13] 13 µM | [14] 23.8 µM | [15] 12.9 µM | [16] 18.4 µM | [17] 18.1 µM | [18] 14 µM | [19] 19.8 µM

CSC[C@H](NC(=O)COc1cccc2cnccc12)C(=O)NC(Cc1ccccc1)C(O)C(=O)N1CSC[C@H]1C(=O)NC(C)(C)C (stereo not given in full)
inactive: [1] 29.2 µM | [2] 95.3 µM | [3] 57.5 µM | [4] 89.3 µM | [5] > 100 µM | [6] 27.5 µM | [7] 32.4 µM | [9] 44.5 µM | [10] > 100 µM | [11] > 100 µM | [13] 36.6 µM | [14] 78.2 µM | [15] 29.2 µM | [16] > 100 µM | [17] > 100 µM | [18] 31.8 µM | [19] 33.8 µM

Fc1cc(C2=Nn3c(CNc4ccc(Cl)cc4)nnc3S/C2=C\c2ccc(-c3ccc(Cl)cc3)o2)c(Cl)cc1Cl
inactive: [1] > 100 µM | [2] 18.6 µM | [4] 46.7 µM | [5] 10.2 µM | [6] 14.3 µM | [7] 35.6 µM | [8] 7.52 µM | [9] 32.3 µM | [10] 57.8 µM | [11] > 100 µM | [12] 23.6 µM | [13] 41.7 µM | [14] 67 µM | [15] 13.4 µM | [16] 6.53 µM | [17] > 100 µM | [18] 22.8 µM | [19] > 100 µM

CN(C)Cc1cc(C(=O)/C=C/c2c(F)cccc2Cl)cc(CN(C)C)c1O
inactive: [1] 11.4 µM | [2] 10.8 µM | [3] 15.2 µM | [4] 17.5 µM | [5] 13.1 µM | [6] 10.8 µM | [7] 14.3 µM | [8] 12.8 µM | [9] 5.61 µM | [10] 13.1 µM | [11] 9.57 µM | [12] 11.5 µM | [13] 14.9 µM | [14] 14.5 µM | [15] 2.69 µM | [16] 17 µM | [17] 8.2 µM | [18] 4.83 µM | [19] 3.02 µM

Cn1c2n/c(=N\c3ccc(Cl)cc3)[n+]3ccc4ccccc4c3c-2c([O-])n1-c1ccccc1
inactive: [1] > 100 µM | [2] > 100 µM | [3] > 100 µM | [4] > 100 µM | [5] > 100 µM | [6] > 100 µM | [8] > 100 µM | [9] > 100 µM | [10] > 100 µM | [11] > 100 µM | [12] 46.3 µM | [13] > 100 µM | [14] > 100 µM | [15] > 100 µM | [16] > 100 µM | [17] > 100 µM | [18] > 100 µM | [19] > 100 µM

O=C(CCCCCC(=O)N1CC(CCl)c2ccc([N+](=O)[O-])cc21)N1CC(CCl)c2ccc([N+](=O)[O-])cc21 (stereo not given)
inactive: [1] > 100 µM | [2] > 100 µM | [3] > 100 µM | [4] > 100 µM | [5] > 100 µM | [6] > 100 µM | [8] > 100 µM | [9] > 100 µM | [10] 23.7 µM | [11] > 100 µM | [12] > 100 µM | [13] > 100 µM | [15] > 100 µM | [16] > 100 µM | [17] > 100 µM | [18] > 100 µM | [19] 75.3 µM

Oc1ccc(Nc2nc(Cl)c3nc[nH]c3n2)cc1
inactive: [1] > 100 µM | [2] > 100 µM | [3] > 100 µM | [4] > 100 µM | [5] > 100 µM | [6] > 100 µM | [7] > 100 µM | [8] > 100 µM | [9] > 100 µM | [10] > 100 µM | [11] > 100 µM | [12] 61.9 µM | [13] 61.9 µM | [15] > 100 µM | [16] > 100 µM | [17] > 100 µM | [18] 63.5 µM | [19] 34.5 µM

COc1ccccc1N1C(=O)CS(=O)(=O)C1c1cccc(Oc2ccccc2)c1 (stereo not given)
inactive: [1] 11.9 µM | [2] 16.1 µM | [3] 15 µM | [4] 19.1 µM | [5] 15.5 µM | [6] 16.1 µM | [7] 18.9 µM | [8] 20.8 µM | [9] 18.3 µM | [11] 19.4 µM | [12] 19.9 µM | [13] 15.6 µM | [14] 17.5 µM | [15] 16.9 µM | [16] 16.9 µM | [17] 16.9 µM | [18] 17.8 µM | [19] 12.7 µM

CN(C)C(=C1c2cc([N+](=O)[O-])ccc2-c2ccc([N+](=O)[O-])cc21)N(C)C
inactive: [1] > 100 µM | [2] > 100 µM | [3] > 100 µM | [4] > 100 µM | [5] > 100 µM | [6] > 100 µM | [7] > 100 µM | [8] > 100 µM | [9] > 100 µM | [10] > 100 µM | [11] > 100 µM | [12] 5.93 µM | [13] 4.11 µM | [14] > 100 µM | [15] > 100 µM | [16] > 100 µM | [17] > 100 µM
